Data set [1] has as its target T1, HA-DCAF16 and FLAG-FKBP12_NLS (Homo sapiens, UniProt P62942+Q9NXF7).
T1 construct: expressed in transfected cells; host or cells: HEK293T stably expressing FLAG-FKBP12_NLS, transiently transfected with HA-DCAF16 (pRK5)
Kind of data set: Co-immunoprecipitation of HA-DCAF16 with FLAG-FKBP12_NLS (ternary complex) in HEK293T cells. The data set is classed as cell-based. To be noted: 5 μM, MG132 10 μM, 2 hours. The method, then: (§1) Cells were collected and lysed in 1% NP-40 lysis buffer (25 mM Tris-HCl pH 7.4, 150 mM NaCl, 10% glycerol, 1% Nonidet P-40) with complete protease inhibitor cocktail (Roche). Cells were vortexed and sonicated for 5 pulses (40%, 4). The supernatant was collected after centrifugation at 16,000 g for 10 min at 4° C. Protein concentration was determined by DC assay (Bio-Rad). Protein lysate was heated at 95° C. for 5 min in 1× Laemmli sample buffer. Proteins were resolved by 12% or 14% Novex Tris-Glycine Mini Gels (Invitrogen) and transferred to polyvinylidene fluoride (PVDF) membrane (0.2 Bio-Rad). The membrane was blocked with 5% BSA in TBST buffer (0.1% Tween 20, 20 mM Tris-HCl 7.6, 150 mM NaCl) at room temperature for 1 h. The antibody was diluted with fresh 5% BSA in TBST buffer (1:10000 dilution for FLAG, HA and β-Actin, 1:1000 dilution for others) and incubated with membrane (1 h room temperature for FLAG, HA and β-Actin, overnight 4° C. for others). Membrane was washed three times with TBST buffer and incubated with secondary antibody (1:5000 dilution in 5% BSA in TBST) at room temperature for 1 h. Membrane was washed three times with TBST buffer. The chemiluminescence signal in membrane was recorded after developing in ECL or ECL plus western blotting detection reagent using CL-XPosure film (Thermo Scientific). Relative band intensities were quantified using ImageJ.
Cells were collected and lysed in 1% NP-40 lysis buffer with complete protease inhibitor cocktail on ice for 10 min, followed by 5 pulses of sonication (40%, 4). After centrifugation at 16,000 g for 10 min at 4° C., the supernatant was collected. FLAG affinity gel (20 μL slurry per sample) was incubated with protein lysates at 4° C. for 1 h and washed four times with IP washing buffer. The affinity gel was heated at 95° C. for 10 min in 2× Laemmli sample buffer, followed by western blot analysis.

Data set [2] has as its target T2, FLAG-FKBP12_NLS (Homo sapiens, UniProt P62942). Kind of data set: Anti-FLAG western blot of stably expressed nuclear FKBP12 (FLAG-FKBP12_NLS) in HEK293T cells. The data set is classed as cell-based. Further details: expressed in transfected cells; host or cells: HEK293T, MDA-MB-231 and HEK293 DCAF16+/+ and DCAF16-/- clones (lentiviral pCDH-CMV-MCS-EF1-Puro). To be noted: for nuclear FKBP12 (FKBP12_NLS) protein level: 2 μM, 8 or 24 h; for effect of inhibitor on KB02-SLF-mediated loss of FKBP12_NLS: KB02-SLF 1 μM with MG132 10 μM or MLN4924 1 μM.
Excerpt: (§2) FLAG-tagged variants of FKBP12 (FLAG-FKBP12) or (2) FKBP12 with a C-terminal nuclear localization sequence (FLAG-FKBP12_NLS) were then stably expressed in HEK293T cells to provide cell models for evaluating cytosolic- and nuclear-localized E3-mediated degradation pathways, respectively.
(§3) FLAG-FKBP12 or FLAG-FKBP12_NLS lentivirus was generated by co-transfection of FLAG-FKBP12 or FLAG-FKBP12_NLS, pCMV-dR8.2 and pMD2.G into HEK 293T cells using FuGene 6 transfection reagent (Promega). Virus-containing medium were collected 48 h after transfection, filtered with […] filter, and used to transduce HEK293T and MDA-MB-231 cells in the presence of 10 μg/mL polybrene (Santa Cruz). 72 h after transduction, puromycin (2 μg/mL) was added to cells. HEK293T cells stably expressing FLAG-FKBP12 or FLAG-FKBP12_NLS were obtained after puromycin selection for 7 days. HEK293T cells stably expressing pCDH empty vector were generated in parallel as control.
shRNA lentivirus was generated by co-transfection of shRNA-containing vector, pCMV-dR8.2 and pMD2.G into HEK 293T cells using FuGene 6 transfection reagent (Promega). Virus-containing medium were collected 48 h after transfection and used to transiently transduce HEK293T cells stably expressing FLAG-FKBP12_NLS for 48 h. Lentiviral shRNAs targeting human DCAF16 or DTL were in pLKO.1 vector and purchased from Sigma. The sequences of shRNAs is described below.
as §1
Background: In western blotting, separated proteins are transferred to a membrane and probed.

The test system of the next data set is HEK293T cells. Put plainly: Cell viability assay (Cell Titer Glo). To be noted: 24 hours, read-out: cytotoxicity IC50. The data set is classed as cell-based, human. As to the method: HEK293T cells were seeded in 96-well clear bottom white plate (Corning) at 3×10^4 cells per well in 100 μL of DMEM medium and grown for 24 h. The cells were treated with 0.625, 1.25, 2.5, 5, 10, 20 and 40 μM of KB02-SLF or KB02-JQ1 (DMSO stock, final DMEM concentration is 0.1% (v/v)) in 100 μL of DMEM medium for 24 h. 50 μL of Cell Titer Glo reagent (Promega) was added to each well and incubate for 10 min at room temperature. The luminescence was read on CLARIOstar (BMG LAB TECH).
For orientation: Cellular ATP, detected with luciferase, serves as a proxy for viable cell number.

Data set [3] concerns the target T2, FLAG-FKBP12_NLS. Kind of data set: Western blot of stably expressed FLAG-FKBP12_NLS in MDA-MB-231 cells. The data set is classed as cell-based. Further details: expressed in transfected cells; host or cells: HEK293T, MDA-MB-231 and HEK293 DCAF16+/+ and DCAF16-/- clones (lentiviral pCDH-CMV-MCS-EF1-Puro). To be noted: 8 hours; for effect of inhibitor on degradation of FLAG-FKBP12_NLS in MDA-MB-231 cells: KB02-PEG0-SLF, KB02-SLF or KB02-PEG4-SLF 1 μM. As to the method:
as §3, §1

The next data set has as its target T3, BRD4 (Homo sapiens, UniProt O60885).
T3 construct: degradation of endogenous BRD4 in HEK293T cells; endogenous in cells; host or cells: HEK293T (A10, A16); HEK293 DCAF16+/+ and DCAF16-/- clones (A11)
Put plainly: Western blot of endogenous BRD4 in HEK293T cells. The conditions noted are these: 20 μM KB02-JQ1; 10 μM MG132 or 1 μM MLN4924. The data set is classed as cell-based. As to the method: as §1

A further data set concerns the target T4, FLAG-FKBP12 (Homo sapiens, UniProt P62942).
T4 construct: expressed in transfected cells; host or cells: HEK293T (lentiviral transduction, puromycin selection)
Put plainly: Anti-FLAG western blot of stably expressed cytosolic FKBP12 (FLAG-FKBP12) in HEK293T cells. The data set is classed as cell-based. The conditions noted are these: lenalidomide-SLF positive control, 4 or 24 h.
Excerpt: as §2
FLAG-FKBP12 or FLAG-FKBP12_NLS lentivirus was generated by co-transfection of FLAG-FKBP12 or FLAG-FKBP12_NLS, pCMV-dR8.2 and pMD2.G into HEK 293T cells using FuGene 6 transfection reagent (Promega). Virus-containing medium were collected 48 h after transfection, filtered with […] filter, and used to transduce HEK293T and MDA-MB-231 cells in the presence of 10 μg/mL polybrene (Santa Cruz). 72 h after transduction, puromycin (2 μg/mL) was added to cells. HEK293T cells stably expressing FLAG-FKBP12 or FLAG-FKBP12_NLS were obtained after puromycin selection for 7 days. […]
Cells were collected and lysed in 1% NP-40 lysis buffer (25 mM Tris-HCl pH 7.4, 150 mM NaCl, 10% glycerol, 1% Nonidet P-40) with complete protease inhibitor cocktail (Roche). […] Protein concentration was determined by DC assay (Bio-Rad). […] The chemiluminescence signal in membrane was recorded after developing in ECL or ECL plus western blotting detection reagent using CL-XPosure film (Thermo Scientific). Relative band intensities were quantified using ImageJ.

SMILES strings stand for the structures. Residues, ends and D or L forms follow the SMILES beside them. *: point of attachment. Cbz = O=C(OCc1ccccc1)*

T2 sequence (P62942 whole entry): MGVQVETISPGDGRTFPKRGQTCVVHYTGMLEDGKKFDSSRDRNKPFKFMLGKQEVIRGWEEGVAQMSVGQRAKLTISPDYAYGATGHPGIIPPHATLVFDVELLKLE
T1 sequence (Q9NXF7 whole entry): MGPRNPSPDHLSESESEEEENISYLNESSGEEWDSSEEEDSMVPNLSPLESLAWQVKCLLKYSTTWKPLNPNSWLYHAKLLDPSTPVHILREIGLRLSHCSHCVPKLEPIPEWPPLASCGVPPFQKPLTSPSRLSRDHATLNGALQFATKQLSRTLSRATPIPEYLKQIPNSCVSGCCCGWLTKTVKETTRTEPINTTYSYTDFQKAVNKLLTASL
T1 sequence (P62942 2-108): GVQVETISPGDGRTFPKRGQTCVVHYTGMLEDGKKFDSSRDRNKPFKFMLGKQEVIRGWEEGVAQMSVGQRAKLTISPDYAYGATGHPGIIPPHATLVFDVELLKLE
T1 sequence (Q16531 whole entry partner): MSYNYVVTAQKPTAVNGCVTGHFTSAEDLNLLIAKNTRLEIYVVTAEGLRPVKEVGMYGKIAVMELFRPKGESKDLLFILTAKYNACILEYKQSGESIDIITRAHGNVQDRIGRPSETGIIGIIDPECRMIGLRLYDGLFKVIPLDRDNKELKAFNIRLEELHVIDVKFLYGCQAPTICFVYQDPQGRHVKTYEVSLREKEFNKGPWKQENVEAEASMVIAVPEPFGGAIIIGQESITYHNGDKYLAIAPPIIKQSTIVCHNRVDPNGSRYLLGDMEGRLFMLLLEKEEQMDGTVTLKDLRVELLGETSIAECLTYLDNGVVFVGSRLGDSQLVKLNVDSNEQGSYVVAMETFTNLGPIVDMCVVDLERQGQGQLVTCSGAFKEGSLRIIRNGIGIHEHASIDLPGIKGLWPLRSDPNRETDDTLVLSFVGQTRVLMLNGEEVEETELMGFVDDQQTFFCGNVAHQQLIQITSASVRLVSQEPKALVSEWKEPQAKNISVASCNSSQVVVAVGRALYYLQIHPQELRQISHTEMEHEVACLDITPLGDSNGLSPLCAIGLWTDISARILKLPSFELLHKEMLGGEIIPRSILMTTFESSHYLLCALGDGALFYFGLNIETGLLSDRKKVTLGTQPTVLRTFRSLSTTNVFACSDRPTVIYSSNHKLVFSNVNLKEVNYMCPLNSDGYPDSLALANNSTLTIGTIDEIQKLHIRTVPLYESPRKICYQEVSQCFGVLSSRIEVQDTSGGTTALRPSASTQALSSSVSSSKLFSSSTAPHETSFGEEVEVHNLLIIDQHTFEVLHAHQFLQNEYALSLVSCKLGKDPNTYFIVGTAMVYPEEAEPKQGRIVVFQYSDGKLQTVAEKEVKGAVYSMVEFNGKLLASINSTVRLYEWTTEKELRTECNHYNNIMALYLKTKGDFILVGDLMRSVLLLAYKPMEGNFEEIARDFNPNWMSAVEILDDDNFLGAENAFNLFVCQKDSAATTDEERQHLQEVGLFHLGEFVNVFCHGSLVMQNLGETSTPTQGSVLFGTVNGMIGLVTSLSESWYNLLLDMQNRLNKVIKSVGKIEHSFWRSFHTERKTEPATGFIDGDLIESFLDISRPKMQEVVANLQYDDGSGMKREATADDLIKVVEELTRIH
T4 sequence (P62942 whole entry): as the sequence (P62942 whole entry) above

On to `CCC(=O)N1CCCc2cc(OCC(=O)NCCOCCOCCC(=O)Nc3cccc([C@@H](CCc4ccc(OC)c(OC)c4)OC(=O)[C@@H]4CCCCN4C(=O)C(=O)C(C)(C)CC)c3)ccc21` [C-KB02-SLF, (R)-3-(3,4-dimethoxyphenyl)-1-(3-(3-(2-(2-(2-((1-propionyl-1,2,3,4-tetrahydroquinolin-6-yl)oxy)acetamido)ethoxy)ethoxy)propanamido)phenyl)propyl (S)-1-(3,3-dimethyl-2-oxopentanoyl)piperidine-2-carboxylate], for which the “co-immunoprecipitation of HA-DCAF16 with FLAG-FKBP12_NLS” value (shortened to “co-immunoprecipitation of HA-DCAF16”) in data set [1] is listed as “DCAF16 was not co-immunoprecipitated”. For the same molecule, the “nuclear FKBP12 (FKBP12_NLS) protein level” value on FLAG-FKBP12_NLS [2] (HEK293T) is given as “Reductions in FKBP12_NLS were not observed”.
Consider `COc1ccc2c(c1)CCCN2C(=O)CCl` [KB02, reference compound], for which, in the data set with HEK293T cells, the IC50 – broadly, the midpoint of a concentration-inhibition curve – came to 23 ± 1.2 µM. Moreover, the “FKBP12_NLS level in cells treated with the separate components of KB02-SLF” value on FLAG-FKBP12_NLS [2] (HEK293T, 1.5 μM, 8 h) is given as “FKBP12_NLS was not reduced”.
On to `CCC(C)(C)C(=O)C(=O)N1CCCC[C@H]1C(=O)O[C@H](CCc1ccc(OC)c(OC)c1)c1cccc(NC(=O)CCOCCOCCOCCOCCNC(=O)COc2ccc3c(c2)CCCN3C(=O)CCl)c1` [KB02-PEG4-SLF, (R)-1-(3-(1-((1-(2-chloroacetyl)-1,2,3,4-tetrahydroquinolin-6-yl)oxy)-2-oxo-6,9,12,15-tetraoxa-3-azaoctadecan-18-amido)phenyl)-3-(3,4-dimethoxyphenyl)propyl (S)-1-(3,3-dimethyl-2-oxopentanoyl)piperidine-2-carboxylate], for which, in data set [1], the “co-immunoprecipitation of HA-DCAF16” value is “co-immunoprecipitated with HA-DCAF16”. Also, the “degradation of FLAG-FKBP12_NLS in MDA-MB-231 cells” value on FLAG-FKBP12_NLS [3] (1 μM) is listed as “degradation of stably expressed FLAG-FKBP12_NLS”.
Take `CCC(C)(C)C(=O)C(=O)N1CCCC[C@H]1C(=O)O[C@H](CCc1ccc(OC)c(OC)c1)c1cccc(NC(=O)CCOCCOCCNC(=O)CCNC(=O)c2cc(NC(=O)CCl)cc(C(F)(F)F)c2)c1` [KB03-SLF, (R)-1-(3-(1-(3-(2-chloroacetamido)-5-(trifluoromethyl)phenyl)-1,5-dioxo-9,12-dioxa-2,6-diazapentadecan-15-amido)phenyl)-3-(3,4-dimethoxyphenyl)propyl (S)-1-(3,3-dimethyl-2-oxopentanoyl)piperidine-2-carboxylate]: the “co-immunoprecipitation of HA-DCAF16” value in data set [1] is given as “DCAF16 was not co-immunoprecipitated”. Also, the “nuclear FKBP12 (FKBP12_NLS) protein level” value at FLAG-FKBP12_NLS [2] (HEK293T) was “did not support FKBP12_NLS degradation”.
With `C=CC(=O)N(c1ccc(Br)cc1)c1ccc(C(=O)NCCOCCOCCOCCC(=O)Nc2cccc([C@@H](CCc3ccc(OC)c(OC)c3)OC(=O)[C@@H]3CCCCN3C(=O)C(=O)C(C)(C)CC)c2)cc1` [KB05-SLF, (R)-1-(3-(1-(4-(N-(4-bromophenyl)acrylamido)phenyl)-1-oxo-5,8,11-trioxa-2-azatetradecan-14-amido)phenyl)-3-(3,4-dimethoxyphenyl)propyl (S)-1-(3,3-dimethyl-2-oxopentanoyl)piperidine-2-carboxylate], in data set [1], the “co-immunoprecipitation of HA-DCAF16” value is recorded as “DCAF16 was not co-immunoprecipitated”. On FLAG-FKBP12_NLS [2] (HEK293T), the “nuclear FKBP12 (FKBP12_NLS) protein level” value was “did not support FKBP12_NLS degradation”.
As for `CC(C)C[C@@H](C=O)NC(=O)[C@H](CC(C)C)NC(=O)[C@H](CC(C)C)NC(=O)OCc1ccccc1` [MG132, reference compound] (Cbz-Leu-Leu-Leu-aldehyde), on BRD4, the “effect of inhibitor on KB02-JQ1-mediated BRD4 degradation” value was “blocked”. Also, the “effect of inhibitor on KB02-SLF-mediated loss of FKBP12_NLS” value at FLAG-FKBP12_NLS [2] (8 h) is “blocked”. Also, the “effect of inhibitor on degradation of FLAG-FKBP12_NLS in MDA-MB-231 cells” value on FLAG-FKBP12_NLS [3] is listed as “blocked”.
For the molecule `NS(=O)(=O)OC[C@@H]1C[C@@H](n2ccc3c(N[C@H]4CCc5ccccc54)ncnc32)C[C@@H]1O` [MLN4924, reference compound], the “effect of inhibitor on KB02-JQ1-mediated BRD4 degradation” value on BRD4 is listed as “blocked”. At FLAG-FKBP12_NLS [2] (8 h), the “effect of inhibitor on KB02-SLF-mediated loss of FKBP12_NLS” value is given as “blocked”. Besides, the “effect of inhibitor on degradation of FLAG-FKBP12_NLS in MDA-MB-231 cells” value at FLAG-FKBP12_NLS [3] is “blocked”.
`CCC(C)(C)C(=O)C(=O)N1CCCC[C@H]1C(=O)O[C@H](CCc1ccc(OC)c(OC)c1)c1cccc(NC(=O)CCCC(=O)NCCCCC(=O)Nc2cccc3c2CN(C2CCC(=O)NC2=O)C3=O)c1` (stereo partly drawn) [lenalidomide-SLF, (1R)-3-(3,4-dimethoxyphenyl)-1-(3-(5-((5-((2-(2,6-dioxopiperidin-3-yl)-1-oxoisoindolin-4-yl)amino)-5-oxopentyl)amino)-5-oxopentanamido)phenyl)propyl (2S)-1-(3,3-dimethyl-2-oxopentanoyl)piperidine-2-carboxylate, reference compound]: at FLAG-FKBP12, the “cytosolic FKBP12 degradation” value was “degraded”. For the same molecule, the “nuclear FKBP12 degradation” value at FLAG-FKBP12_NLS [2] (HEK293T, lenalidomide-SLF positive control, 4 or 24 h) was “degraded”.

(Values after patent US11691984B2, “Compounds and methods for DCAF-mediated protein degradation” (The Scripps Research Institute, priority 2018, dated 2023).)
